Experimental data taken from ChEMBL document CHEMBL1154494, “A highly sensitive fluorogenic probe for cytochrome P450 activity in live cells” (Bioorg Med Chem Lett, 2008).
Calls of active or inactive are those of the source. No cut-off for these calls is given here.

B1: Cytochrome P450 1A1 (Homo sapiens) (protein)
chain: MLFPISMSATEFLLASVIFCLVFWVIRASRPQVPKGLKNPPGPWGWPLIGHMLTLGKNPHLALSRMSQQYGDVLQIRIGSTPVVVLSGLDTIRQALVRQGDDFKGRPDLYTFTLISNGQSMSFSPDSGPVWAARRRLAQNGLKSFSIASDPASSTSCYLEEHVSKEAEVLISTLQELMAGPGHFNPYRYVVVSVTNVICAICFGRRYDHNHQELLSLVNLNNNFGEVVGSGNPADFIPILRYLPNPSLNAFKDLNEKFYSFMQKMVKEHYKTFEKGHIRDITDSLIEHCQEKQLDENANVQLSDEKIINIVLDLFGAGFDTVTTAISWSLMYLVMNPRVQRKIQEELDTVIGRSRRPRLSDRSHLPYMEAFILETFRHSSFVPFTIPHSTTRDTSLKGFYIPKGRCVFVNQWQINHDQKLWVNPSEFLPERFLTPDGAIDKVLSEKVIIFGMGKRKCIGETIARWEVFLFLAILLQRVEFSVPLGVKVDMTPIYGLTMKHACCEHFQMQLRS

Legend:
[1] = tested on: A549; experiment: Inhibition of CYP1A1 level in human A549 cells at 10 uM after 1 hr using Hoechst staining by fluorogenic assay in presence of CYP1A1 inducer TCDD and CYP1A1 inhibitior resveratrol; format: functional, cell-based
[2] = tested on: A549; experiment: Induction of CYP1A1 level in human A549 cells at 10 uM after 1 hr using Hoechst staining by fluorogenic assay in presence of CYP1A1 inducer TCDD; format: functional, cell-based
[3] = tested on: A549; experiment: Induction of CYP1A1 level in human A549 cells at 10 uM after 1 hr using Hoechst staining by fluorogenic assay; format: functional, cell-based
[4] = substrate: CCOc1cc(C)cc(C)c1C(C)(C)CC(=O)Nc1ccc2c(c1)Oc1cc(NC(=O)N3CCOCC3)ccc1C21Oc2ccccc2C1=O; experiment: Activity of human CYP1A1 by fluorogenic assay; format: ADME

Molecule | Activity [1] | Activity [2] | Activity [3] | Km [4] | kcat/Km [4]
CCOc1cc(C)cc(C)c1C(C)(C)CC(=O)Nc1ccc2c(c1)Oc1cc(NC(=O)N3CCOCC3)ccc1C21OC(=O)c2ccccc21 (stereo not given) | Active | Active | Active | – | –
B1 | – | – | – | 0.09 µM | 8800 M⁻¹ s⁻¹
